Biological target: T1, cPLA2α (Homo sapiens, UniProt P47712)
T1 construct: gene PLA2G4A; recombinant, isolated from Sf9 insect cells
T1 sequence (P47712 1-749): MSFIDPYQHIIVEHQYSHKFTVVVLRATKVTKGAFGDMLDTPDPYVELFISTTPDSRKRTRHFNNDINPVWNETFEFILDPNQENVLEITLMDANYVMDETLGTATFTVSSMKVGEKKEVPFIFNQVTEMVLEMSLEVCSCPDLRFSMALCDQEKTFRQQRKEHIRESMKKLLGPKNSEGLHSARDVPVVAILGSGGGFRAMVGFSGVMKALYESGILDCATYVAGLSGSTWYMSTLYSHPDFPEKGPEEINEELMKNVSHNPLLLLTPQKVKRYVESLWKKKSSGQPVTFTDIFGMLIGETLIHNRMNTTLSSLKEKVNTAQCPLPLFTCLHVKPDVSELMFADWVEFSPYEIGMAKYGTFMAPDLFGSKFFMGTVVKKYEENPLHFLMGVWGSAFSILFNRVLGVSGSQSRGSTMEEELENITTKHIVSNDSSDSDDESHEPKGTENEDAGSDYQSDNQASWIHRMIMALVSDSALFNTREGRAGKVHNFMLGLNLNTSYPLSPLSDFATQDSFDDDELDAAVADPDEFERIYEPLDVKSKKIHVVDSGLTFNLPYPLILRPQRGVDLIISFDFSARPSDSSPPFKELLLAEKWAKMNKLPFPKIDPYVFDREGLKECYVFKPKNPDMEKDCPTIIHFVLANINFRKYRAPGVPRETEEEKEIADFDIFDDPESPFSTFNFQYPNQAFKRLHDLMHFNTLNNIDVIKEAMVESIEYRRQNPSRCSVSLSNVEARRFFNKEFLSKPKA
Experiment: cPLA2α activity assay with PAPC/POG vesicles, arachidonic acid by LC-MS/MS
Format: biochemical

SMILES: C[C@@H](C(=O)O)c1ccc(-c2ccccc2)c(F)c1 [R-flurbiprofen]
- IC50: 202 µM

From article PMC5297703, “R-Flurbiprofen Traps Prostaglandins within Cells by Inhibition of Multidrug Resistance-Associated Protein-4” (International Journal of Molecular Sciences, 2016)
